In patent publication US10894817B2, “Fatty acid modified urocortin-2 analogs for the treatment of diabetes and chronic kidney disease” (priority 2016, dated 2021):
Like-named read-outs stand apart in the source and are kept apart here. Starred links: 1 amine or outer side, 2 acyl side, 3 side chain; linkers in the order of their positions; H or OH if unused. Non-standard residues stand in square brackets, D forms with d. Residues, ends and D or L forms follow the SMILES beside them. Groups on a side chain read outwards from the residue. *: point of attachment. C20 diacid = O=C(O)CCCCCCCCCCCCCCCCCCC(=O)*; C18 diacid = O=C(O)CCCCCCCCCCCCCCCCC(=O)*; γGlu = O=C(O)[C@H](CCC(=O)[*:2])N[*:1]; NMeI = CC[C@H](C)[C@H](NC)C(=O)O; AEEA = NCCOCCOCC(=O)O

Legend:
[1] = biological target: T1, human CRHR2b (Homo sapiens, UniProt Q13324); assay: human CRHR2b cell-based cAMP assay; conditions: cAMP assay, CHO cells transfected with human CRHR2b; mean ± SEM of runs; read-out: hCRHR2b Average EC50
T1 construct: expressed in transfected cells; host or cells: Chinese Hamster Ovary (CHO) cells, transient transfection
T1 sequence (Q13324 1-438 isoform Q13324-2): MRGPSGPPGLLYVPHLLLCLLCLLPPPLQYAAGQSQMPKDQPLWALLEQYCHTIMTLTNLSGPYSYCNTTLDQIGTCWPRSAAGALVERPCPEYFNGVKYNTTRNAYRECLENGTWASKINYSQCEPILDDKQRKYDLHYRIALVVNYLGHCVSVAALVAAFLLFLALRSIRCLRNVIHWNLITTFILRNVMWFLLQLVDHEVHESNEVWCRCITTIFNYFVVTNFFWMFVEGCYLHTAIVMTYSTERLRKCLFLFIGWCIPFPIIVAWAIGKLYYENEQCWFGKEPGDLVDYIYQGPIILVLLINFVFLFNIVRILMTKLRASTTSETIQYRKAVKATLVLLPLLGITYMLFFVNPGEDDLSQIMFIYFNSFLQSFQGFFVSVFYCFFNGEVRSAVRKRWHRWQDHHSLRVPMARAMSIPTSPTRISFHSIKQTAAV
Procedure, shortened: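 ED50 values are means ± SEM over several runs, curve-fitted from cAMP in pmol, calibrated against unlabeled-cAMP standards. Detection was HTRF competition, ratio 665/620 nm, after 30 min agonist exposure at 37 °C.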

[2] = mouse, in vivo, sc, 386 nmol/kg
[3] = cynomolgus monkey, in vivo, sc, 96.4 nmol/kg
[4] = in vivo; conditions: male, Sprague Dawley, rat, sc; for half-life: T1/2
Description: Plasma concentrations of compounds were determined by LC/MS methods. Each method measured the intact compound; peptide plus linked time extension. For each assay, the compound and an analog, used as an internal standard (IS), were extracted from 100% mouse, rat or monkey plasma (25 μl) using acetonitrile. Two distinct layers were formed upon centrifugation with the compound and the IS located in the supernatant layer. An aliquot of the supernatant (80 μl) was transferred to a Thermo Protein Precipitation Plate with water (150 μl) and formic acid (25 μl) followed by mixing. A final 31% acetonitrile in 10% formic acid sample (10 μl) was loaded onto a Supelco Analytical Discovery BIO Wide Pore C5-3 column (5 cm×1 mm, 3 μm). The column effluent was directed into a Thermo Q-Exactive mass spectrometer for detection and quantitation.
Male Sprague Dawley rats were administered a single subcutaneous dose (50 or 150 nmol/kg) of a compound described herein in 20 mM Tris-HCl Tris Buffer (pH 8) at a volume of 0.26 or 0.77 mL/kg.

[5] = tested on: remnant kidney mice; assay: Mouse remnant kidney model of hypertensive nephropathy (Example 4, 8 weeks); assay type: in vivo; conditions: 2.6 nmol/kg dose group
Description: A mouse remnant kidney model (“remnant”) involving surgical reduction of ¾ of the entire renal mass is used as a preclinical model of hypertensive renal disease (Kidney Int. 64(1):350-5, (2003)).
Surgical reduction of renal mass (N=32 mice) (obtained by Taconic, Inc.) is performed by Taconic, Inc. in male 129S6 mice at 9-10 weeks of age. Randomization into 4 equivalent groups of 8 remnant kidney mice is done at 17 weeks post-surgery by urine albumin to creatinine ratio (ACR) and body weight. […]
Body weight is determined at baseline and at termination with a Metler Toledo Balance.
The heart and kidney are removed at necropsy and weighed on a Metler Toledo Balance. […] Serum is analyzed for creatinine on a Roche Hitachi Modular Analytics P analyzer with reagents from Roche. […]
Urine albumin and creatinine are determined on a Roche Hitachi Modular Analytics P analyzer. Urine creatinine is determined with the Creatinine Plus reagent by Roche. […]
Remnant kidneys are removed at study termination, fixed in formalin and processed for paraffin sectioning according to standard methodology. Sections of kidney are evaluated for renal lesions by a board certified pathologist. […]
Pathology data are statistically evaluated with R software by fitting an ordered logit model to the categorical scores, and then comparing the differences between different treatment groups. […]

Q: For CC[C@H](C)[C@H](NC)C(=O)N[C@H](C(=O)N[C@@H](CC(C)C)C(=O)N[C@@H](CO)C(=O)N[C@@H](CC(C)C)C(=O)N[C@@H](CC(=O)O)C(=O)N[C@H](C(=O)N1CCC[C@H]1C(=O)N[C@H](C(=O)NCC(=O)N[C@@H](CC(C)C)C(=O)N[C@@H](CC(C)C)C(=O)N[C@@H](CCC(N)=O)C(=O)N[C@H](C(=O)N[C@@H](CC(C)C)C(=O)N[C@@H](CC(C)C)C(=O)N[C@@H](CCC(=O)O)C(=O)N[C@@H](CCC(N)=O)C(=O)N[C@@H](CCC(=O)O)C(=O)N[C@@H](CCCCN)C(=O)N[C@@H](CCC(N)=O)C(=O)N[C@@H](CCC(=O)O)C(=O)N[C@@H](CCCCN)C(=O)N[C@@H](CCC(=O)O)C(=O)N[C@@H](CCCCN)C(=O)N[C@@H](CCC(N)=O)C(=O)N[C@@H](CCC(N)=O)C(=O)N[C@@H](C)C(=O)N[C@@H](CCCCNC(=O)COCCOCCNC(=O)COCCOCCNC(=O)CC[C@H](NC(=O)CC[C@H](NC(=O)CCCCCCCCCCCCCCCCC(=O)O)C(=O)O)C(=O)O)C(=O)N[C@H](C(=O)N[C@@H](CC(N)=O)C(=O)N[C@@H](C)C(=O)N[C@@H](CCC(N)=O)C(=O)N[C@H](C(=O)N[C@@H](CC(C)C)C(=O)N[C@@H](C)C(=O)N[C@@H](CCC(N)=O)C(=O)N[C@H](C(N)=O)C(C)C)[C@@H](C)CC)[C@@H](C)O)[C@@H](C)CC)[C@@H](C)CC)C(C)C)C(C)C [Example 3] (H-[NMeI]VLSLDVPIGLLQILLEQEKQEKEKQQAK([AEEA-AEEA-γGlu-γGlu-C18 diacid])TNAQILAQV-NH2), which EC50 [1] is on record?
A: 2 ± 1.11 nM

Q: For CC[C@H](C)[C@H](NC(C)=O)C(=O)N[C@H](C(=O)N[C@@H](CC(C)C)C(=O)N[C@@H](CO)C(=O)N[C@@H](CC(C)C)C(=O)N[C@@H](CC(=O)O)C(=O)N[C@H](C(=O)N1CCC[C@H]1C(=O)N[C@H](C(=O)NCC(=O)N[C@@H](CC(C)C)C(=O)N[C@@H](CC(C)C)C(=O)N[C@@H](CCC(N)=O)C(=O)N[C@H](C(=O)N[C@@H](CC(C)C)C(=O)N[C@@H](CC(C)C)C(=O)N[C@@H](CCC(=O)O)C(=O)N[C@@H](CCC(N)=O)C(=O)N[C@@H](CCC(=O)O)C(=O)N[C@@H](CCCCN)C(=O)N[C@@H](CCC(N)=O)C(=O)N[C@@H](CCC(=O)O)C(=O)N[C@@H](CCCCN)C(=O)N[C@@H](CCC(=O)O)C(=O)N[C@@H](CCCCN)C(=O)N[C@@H](CCC(N)=O)C(=O)N[C@@H](CCC(N)=O)C(=O)N[C@@H](C)C(=O)N[C@@H](CCCCNC(=O)COCCOCCNC(=O)COCCOCCNC(=O)CC[C@H](NC(=O)CC[C@H](NC(=O)CCCCCCCCCCCCCCCCCCC(=O)O)C(=O)O)C(=O)O)C(=O)N[C@H](C(=O)N[C@@H](CC(N)=O)C(=O)N[C@@H](C)C(=O)N[C@@H](CCC(N)=O)C(=O)N[C@H](C(=O)N[C@@H](CC(C)C)C(=O)N[C@@H](C)C(=O)N[C@@H](CCC(N)=O)C(=O)N[C@H](C(N)=O)C(C)C)[C@@H](C)CC)[C@@H](C)O)[C@@H](C)CC)[C@@H](C)CC)C(C)C)C(C)C [Example 2] (Ac-IVLSLDVPIGLLQILLEQEKQEKEKQQAK([AEEA-AEEA-γGlu-γGlu-C20 diacid])TNAQILAQV-NH2), which EC50 [1] is on record?
A: 1.2 ± 0.52 nM

Q: And the CL/F [2]?
A: 0.138 mL/min/kg

Q: And the half-life [2]?
A: 20 h

Q: And the CL/F ([3]; CL/F)?
A: 0.00683 mL/min/kg

Q: What about the half-life ([3]; T1/2) of the same compound?
A: 97 h

Q: With CC[C@H](C)[C@H](NC)C(=O)N[C@H](C(=O)N[C@@H](CC(C)C)C(=O)N[C@@H](CO)C(=O)N[C@@H](CC(C)C)C(=O)N[C@@H](CC(=O)O)C(=O)N[C@H](C(=O)N1CCC[C@H]1C(=O)N[C@H](C(=O)NCC(=O)N[C@@H](CC(C)C)C(=O)N[C@@H](CC(C)C)C(=O)N[C@@H](CCC(N)=O)C(=O)N[C@H](C(=O)N[C@@H](CC(C)C)C(=O)N[C@@H](CC(C)C)C(=O)N[C@@H](CCC(=O)O)C(=O)N[C@@H](CCC(N)=O)C(=O)N[C@@H](CCC(=O)O)C(=O)N[C@@H](CCCCN)C(=O)N[C@@H](CCC(N)=O)C(=O)N[C@@H](CCC(=O)O)C(=O)N[C@@H](CCCCN)C(=O)N[C@@H](CCC(=O)O)C(=O)N[C@@H](CCCCN)C(=O)N[C@@H](CCC(N)=O)C(=O)N[C@@H](CCC(N)=O)C(=O)N[C@@H](C)C(=O)N[C@@H](CCCCNC(=O)COCCOCCNC(=O)COCCOCCNC(=O)CC[C@H](NC(=O)CC[C@H](NC(=O)CCCCCCCCCCCCCCCCCCC(=O)O)C(=O)O)C(=O)O)C(=O)N[C@H](C(=O)N[C@@H](CC(N)=O)C(=O)N[C@@H](C)C(=O)N[C@@H](CCC(N)=O)C(=O)N[C@H](C(=O)N[C@@H](CC(C)C)C(=O)N[C@@H](C)C(=O)N[C@@H](CCC(N)=O)C(=O)N[C@H](C(N)=O)C(C)C)[C@@H](C)CC)[C@@H](C)O)[C@@H](C)CC)[C@@H](C)CC)C(C)C)C(C)C [Example 4] (H-[NMeI]VLSLDVPIGLLQILLEQEKQEKEKQQAK([AEEA-AEEA-γGlu-γGlu-C20 diacid])TNAQILAQV-NH2) as the compound, how does the CL/F ([4]; 50 nmol/kg) read?
A: 0.107 mL/min/kg

Q: What about the half-life ([4]; 50 nmol/kg) of the same compound?
A: 19 h

Q: What about the CL/F ([4]; 150 nmol/kg) of the same compound?
A: 0.113 mL/min/kg

Q: And the half-life ([4]; 150 nmol/kg)?
A: 21 h

Q: What about the EC50 [1] of the same compound?
A: 1.85 ± 0.51 nM

Q: What about the “deaths during the study” value [5] of the same compound?
A: one
